This note sets out measurements from ChEMBL document CHEMBL1158867, “Activity-guided isolation of constituents of Tephrosia purpurea with the potential to induce the phase II enzyme, quinone reductase” (J Nat Prod, 1997).

As a reminder, the IC50 is the midpoint of a concentration-inhibition curve.

A short description of test [1]: Cytotoxicity against mouse Hepa-1c1c7 cells assessed as cell survival after 2 days by MTT assay. It is filed as functional, cell-based. The conditions noted are these: Hepa-1c1c7, 48 h. On the technique in general: Formazan colour is commonly taken as a measure of viable cells.
Test [2] is described as follows: Chemoprevention index, ratio of IC50 for mouse Hepa-1c1c7 cells to drug level required to double quinone reductase activity in mouse Hepa-1c1c7 cells. It is filed as functional.

Each structure is given as a SMILES string.

In the case of `COc1ccc2c(c1)O[C@H]1c3ccc(O)cc3OC[C@@H]21`, the IC50 in test [1] is greater than 74 µM. For the same compound, the Ratio in test [2] is recorded as greater than 5.4.
The corresponding values for `COc1cc(-c2coc3cc(O)ccc3c2=O)cc(OC)c1O` are greater than 63.7 µM and greater than 3.7.
In the case of `C[S+]([O-])CCCCN=C=S` (stereo not drawn) [SULFORAPHANE], in test [1], the IC50 worked out at 11 µM. Besides, in test [2], the Ratio worked out at 25.
Turning to `COc1cc2c(c3c1C(=O)C[C@@H](c1ccccc1)O3)[C@H]1[C@@H](O2)OC(C)(C)[C@@H]1OC(C)=O`, in test [1], the IC50 was greater than 50.7 µM. The Ratio in test [2] was greater than 9.
In the case of `Oc1ccc2c(c1)OC[C@H]1c3cc4c(cc3O[C@@H]21)OCO4` [MAACKIAIN], the IC50 in test [1] was greater than 70.4 µM. Besides, the Ratio in test [2] is on record as greater than 8.
The corresponding values for `COc1cc2c(c(O)c1C(=O)/C=C/c1ccccc1)[C@H]1[C@@H](O2)OC(C)(C)[C@@H]1OC(C)=O` [TEPHROPURPURIN] are 13.4 µM and 89.
The corresponding values for `COc1c(C(=O)/C=C(\O)c2ccccc2)ccc2occc12` [PONGAMOL] are 18.7 µM and 3.1.
As to `COc1c(O)ccc2c1OC[C@H]1c3cc4c(cc3O[C@@H]21)OCO4`, in test [1], the IC50 was greater than 63.7 µM. The Ratio in test [2] is greater than 4.4.
On to `O=c1cc(-c2ccccc2)oc2c1ccc1occc12` [LANCEOLATIN B], for which the concentration for half-maximal inhibition (IC50) in test [1] was greater than 76.3 µM. In test [2], the Ratio was greater than 3.3.
